Test results published in patent US20220202801A1, “USE OF COMPOUND IN PREPARATION OF DRUG FOR TREATING ATHEROSCLEROSIS” (GenEros Biopharma Ltd., priority 2019, published 2022).

Key:
[1] = test system: atherosclerosis model induced by high-fat diet in ApoE knockout mice; assay: Ratio of atherosclerotic plaque area to total inner wall area of the aorta (En-Face, oil red; Example 2); type: in vivo; conditions: for Mean of Plaque Ratio (plaque area to total inner wall area of aorta): high-fat diet; for symptoms of atherosclerosis under therapeutic intervention (mainly plaque area ratio): different doses, Example 2
From the text: (§1) Methods: A total of 130 SPF grade C57BL/6 ApoE −/− model male mice aged 8 weeks were purchased from Charles River Laboratories (Beijing, China) (animal license number: SCXK (Beijing) 2016-0001, animal qualification certificate No.: 11400700331337). After one week of acclimatization in a SPF-grade animal facility, the animals with less weights were discarded and the rest was randomly divided into 11 groups, with 8 animals in each group. Except for the healthy control group, the rest were fed with 10% high-fat food (the first day of the high-fat diet was recorded as D1). Starting from the 8th week of the high-fat diet, each group of animals was orally given solvents or corresponding drugs, and the volume of administration was 10 ml/kg, once a day for 8 weeks. Animals were observed and administered by gavage once a day and the body weight were measured once a week for 56 days. […] The store solution of the test samples was dissolved in dimethyl sulfoxide solution and prepared with 30% PEG300.
Immediately after blood was taken from the heart, it was perfused through the left ventricle with 20 ml of normal saline. After bloodletting, the heart and aorta (from the aortic arch to the iliac artery) were isolated. The isolated artery was cut longitudinally from the aortic arch to the iliac artery, fixed in 4% paraformaldehyde for 30 minutes, synchronized with 60% isopropanol for 10 minutes, stained in 60% oil red for 30 minutes, and washed by 60% isopropanol 3 times, 5 minutes each time. Finally, the colored aorta was washed with deionized water and photographed. The proportion of the red plaque area was measured by Image Pro Plus 6.0 (Media Cybernetics, MD, US). The heart samples were fixed in 4% paraformaldehyde solution overnight and then placed in sucrose solution for dehydration. Then, it was embedded with OCT (Sakura, Japan) under a stereo microscope and made into 7 μm frozen sections. After HE staining, the slices were used for routine pathological examination. The outflow tract images were collected under an optical microscope at 4* magnification, and 4*, 10*, 20* and 40* magnification eyepieces were used for high-quality morphological observation. The detection standard referred to the histological classification standard of human atherosclerosis disease.
Evaluate the effect of different therapeutic drugs by the ratio of the area of atherosclerotic plaque to the total area of the inner wall of the aortic vessel (En-Face)
We adopted the widely accepted standard for the severity of arteriosclerosis in animal models, and analyzed the area of all plaques on the inner wall of the aorta. […] FIGS. 46A and 46B are histograms of the ratios of plaque area on the inner wall of the aorta in each treatment group. The values in FIGS. 46A and 46B are the ratios of plaques to the total area of the inner wall in each group, and the error is standard error±SEM. The statistical significance analysis is as follows: ***P<0.001 compared with the normal control group; #P<0.05 compared with the vehicle group; ##P<0.01, ###P<0.001, compared with the vehicle group through one-way ANOVA Dunnett's test; & represents P<0.05, compared with the vehicle group by t test.

ApoE knockout mice [2] = assay: Blood lipid metabolism TG, TCHO, HDL-c, LDL-c (Example 2); type: in vivo
From the text: as §1
At the end of the experiment, the animals were euthanized by inhalation of carbon dioxide. Blood was taken from the heart, and centrifuged at 3000 r/min at a low temperature centrifuge for 10 min to separate the serum. The levels of total cholesterol TC, triglyceride TG, high-density lipoprotein HDL-C, and low-density lipoprotein LDL-C were measured, and the remaining serum was stored in a refrigerator at −80° C.
Before the start of the experiment, animal blood samples were analyzed for blood lipid metabolism, including conventional triglyceride (TG), total cholesterol (TCHO), high-density lipoprotein (HDL-c) and low-density lipoprotein (LDL-c). After high-fat or ordinary food feeding for 8 weeks, the blood lipid levels were measured again. After the drug treatment was started, blood lipid measurements were performed every four weeks until the end of the experiment.

VCAM-1 = assay: Immunohistochemistry of aortic wall, VCAM-1; type: in vivo, mice; conditions: IHC-P×400, single animal micrograph, 20 mg/kg
From the text: (§2) Methods: SPF grade C57BL/6 ApoE −/−model mice were provided by Guangdong Medical Experimental Animal Center, laboratory animal production license No. SOCK (Guangdong) 2013-0002. Laboratory animal quality certificate number: 44007200048196). Mice were half male and half female, aged 8 to 12 weeks, and 72 animals in total. After four weeks of housing in a SPF-level animal facility, animals with less body weights were disposed. A total of 64 animals were randomly divided into 8 groups, 8 in each group, fed with 10% high-fat food, and received with different treatments. Animals were observed and administered with the medicines by gavage once daily. The body weights were measured once a week and continued for 58 days. […] The test sample was dissolved in dimethyl sulfoxide solution and prepared with 30% PEG300.
(§3) After blood collection, the animals were sacrificed, and the aortic arch together with the heart and thoracic aorta were fixed with neutral formaldehyde and subject to pathological examination. The abdominal aorta was collected and quick-frozen in liquid nitrogen, and stored at −80° C.
(§4) c) Immunohistochemistry: The thoracic aorta was sliced and detected by immunohistochemistry for the expression of CD68, intercellular adhesion molecule-1 (ICAM-1), and vascular cell adhesion Molecule-1 (VCAM-1).

ICAM-1 = assay: Immunohistochemistry of aortic wall, ICAM-1; type: in vivo, mice; conditions: IHC-P×400, single animal micrograph, 20 mg/kg
From the text: as §2, §3, §4

[3] = Body weight of ApoE knockout mice on high-fat food (Example 1); type: in vivo; conditions: 20 mg/kg gavage QD
From the text: as §2
Statistical analysis: Data were expressed as the mean plus or minus the standard deviation (x± s), and analyzed by SPSS21.0 statistical software. The weight data of each group were compared by repeated measures analysis of variance; the blood lipid levels of the statin treatment group were compared with the model control group by independent sample T test; the blood lipid levels of the test samples A and B were compared with the model control group by one-way analysis of variance, and LSD method was used for the comparison among groups. The level of test is α=0.05.

ApoE knockout mice [4] = assay: Four blood lipids in serum of ApoE knockout mice (Example 1); type: in vivo; conditions: serum
From the text: as §2
At the end of the experiment, animals were anesthetized with pentobarbital sodium. Blood was collected from the orbital venous plexus, and centrifuged at 3000 r/min at a low temperature for 10 min to separate the serum. The levels of total cholesterol TC, triglyceride TG, high-density lipoprotein HDL-C, and low-density lipoprotein LDL-C were measured, and the remaining serum was stored in a refrigerator at −80° C.
Statistical analysis: Data were expressed as the mean plus or minus the standard deviation (x± s), and analyzed by SPSS21.0 statistical software. […] The level of test is α=0.05.

CD68 = assay: Immunohistochemistry of aortic wall, CD68; type: in vivo, mice; conditions: IHC-P×400, single animal micrograph, 20 mg/kg
From the text: as §2, §3, §4

[5] = test system: atherosclerotic lesions in ApoE knockout mice; assay: Aortic HE and oil red O staining, atherosclerotic lesion scores (Example 1); type: in vivo
From the text: as §2, §3
a) HE staining: aortic arch was sliced and HE stained. The plaques were observed under optical microscope.
b) Oil red O staining: aortic arch was sliced and oil red O stained. The plaques were observed under optical microscope.

[6] = half male and female, 20 mg/kg body weight
[7] = ♀, 20 mg/kg gavage QD, 58 days, 20 mg/kg
[8] = ♀, 20 mg/kg gavage QD, 58 days, listed as statin, 20 mg/kg
[9] = ♂, 20 mg/kg gavage QD, 58 days, 20 mg/kg
[10] = ♂, 20 mg/kg gavage QD, 58 days, listed as statin, 20 mg/kg
[11] = of 8 animals, 20 mg/kg body weight

Cc1ccc(CC(=O)N2CCC(n3c(=O)[nH]c4ccccc43)CC2)cc1 [Sample X7, 1-(1-(2-(p-tolyl)acetyl)piperidin-4-yl)-1H-benzo[d]imidazole-2(3H)-one]
Mean of Plaque Ratio (plaque area to total inner wall area of aorta) ([1]; 5 mpk PO QD 8 weeks): 9.00% | symptoms of atherosclerosis under therapeutic intervention (mainly plaque area ratio) [1]: significantly alleviate the symptoms of atherosclerosis | effect on high-density lipoprotein (HDL-c) level compared with the vehicle group (ApoE knockout mice [2]): no obvious effect | effect on low-density lipoprotein (LDL-c) level compared with the vehicle group (ApoE knockout mice [2]): significantly reduce | effect on total cholesterol (TCHO) level compared with the vehicle group (ApoE knockout mice [2]): significantly reduce | effect on triglyceride (TG) level compared with the vehicle group (ApoE knockout mice [2]): significantly reduce

O=C(Cc1ccc(C(F)(F)F)cc1)N1CCC(n2c(=O)[nH]c3ccccc32)CC1 [Sample X8, 1-(1-(2-(4-(trifluoromethyl)phenyl)acetyl)piperidin-4-yl)-1H-benzo[d]imidazole-2(3H)-one]
Mean of Plaque Ratio (plaque area to total inner wall area of aorta) ([1]; 5 mpk PO QD 8 weeks): 9.02% | Mean of Plaque Ratio (plaque area to total inner wall area of aorta) ([1]; 10 mpk PO QD 8 weeks): 6.93% | symptoms of atherosclerosis under therapeutic intervention (mainly plaque area ratio) [1]: significantly alleviate the symptoms of atherosclerosis | effect on high-density lipoprotein (HDL-c) level compared with the vehicle group (ApoE knockout mice [2]): no obvious effect | effect on low-density lipoprotein (LDL-c) level compared with the vehicle group (ApoE knockout mice [2]): significantly reduce | effect on total cholesterol (TCHO) level compared with the vehicle group (ApoE knockout mice [2]): significantly reduce | effect on triglyceride (TG) level compared with the vehicle group (ApoE knockout mice [2]): significantly reduce

CC(C)c1c(C(=O)Nc2ccccc2)c(-c2ccccc2)c(-c2ccc(F)cc2)n1CC[C@@H](O)C[C@@H](O)CC(=O)[O-].CC(C)c1c(C(=O)Nc2ccccc2)c(-c2ccccc2)c(-c2ccc(F)cc2)n1CC[C@@H](O)C[C@@H](O)CC(=O)[O-].[Ca+2] [Statin, Atorvastatin calcium, reference compound]
aorta (VCAM-1) signal expression in blood vessels (VCAM-1): low to medium | aorta (ICAM-1) signal expression in blood vessels (ICAM-1): low to medium | body weight ([3]; d1, half male and female): 25.1 ± 4.2 g | body weight ([3]; d1, ♀): 21.2 ± 0.9 g | body weight ([3]; d1, ♂): 28.9 ± 1.2 g | body weight ([3]; d8, half male and female): 25.4 ± 3.8 g | body weight ([3]; d8, ♀): 22.0 ± 0.6 g | body weight ([3]; d8, ♂): 28.9 ± 0.9 g | body weight ([3]; d15, half male and female): 25.3 ± 4.1 g | body weight ([3]; d15, ♀): 21.5 ± 0.7 g | body weight ([3]; d15, ♂): 29.0 ± 1.1 g | body weight ([3]; d22, half male and female): 25.2 ± 4.2 g | body weight ([3]; d22, ♀): 21.4 ± 0.6 g | body weight ([3]; d22, ♂): 29.0 ± 1.4 g | body weight ([3]; d29, half male and female): 25.2 ± 4.2 g | body weight ([3]; d29, ♀): 21.4 ± 0.6 g | body weight ([3]; d29, ♂): 29.1 ± 1.2 g | body weight ([3]; d36, half male and female): 25.7 ± 3.8 g | body weight ([3]; d36, ♀): 22.2 ± 0.9 g | body weight ([3]; d36, ♂): 29.2 ± 1.0 g | body weight ([3]; d43, half male and female): 26.0 ± 3.9 g | body weight ([3]; d43, ♀): 22.4 ± 0.5 g | body weight ([3]; d43, ♂): 29.6 ± 0.8 g | body weight ([3]; d50, half male and female): 26.5 ± 3.7 g | body weight ([3]; d50, ♀): 23.1 ± 0.9 g | body weight ([3]; d50, ♂): 29.8 ± 0.6 g | body weight ([3]; d57, half male and female): 26.4 ± 4.1 g | body weight ([3]; d57, ♀): 22.7 ± 0.8 g | body weight ([3]; d57, ♂): 30.0 ± 1.6 g | body weight ([3]; d58, half male and female): 26.2 ± 3.8 g | body weight ([3]; d58, ♀): 22.8 ± 0.5 g | body weight ([3]; d58, ♂): 29.7 ± 1.4 g | effect on total cholesterol (TCHO) level compared with the vehicle group (ApoE knockout mice [2]): reduce | effect on triglyceride (TG) level compared with the vehicle group (ApoE knockout mice [2]): increase | LDL-C (ApoE knockout mice [4]; [6]): 5.60 ± 1.19 mmol/L | TC (ApoE knockout mice [4]; [6]): 18.15 ± 2.38 mmol/L | TG (ApoE knockout mice [4]; half male and female, 20 mg/kg body weight, 20 mg/kg): 0.71 ± 0.19 mmol/L | TG (ApoE knockout mice [4]; half male and female, 20 mg/kg body weight, listed as statin, 20 mg/kg): lower | LDL-C (ApoE knockout mice [4]; ♀, 20 mg/kg gavage QD, 58 days): 5.03 ± 0.57 mmol/L | HDL-C (ApoE knockout mice [4]; [7]): 1.44 ± 0.09 mmol/L | TC (ApoE knockout mice [4]; [7]): 16.85 ± 1.76 mmol/L | TG (ApoE knockout mice [4]; [7]): 0.65 ± 0.06 mmol/L | HDL-C (ApoE knockout mice [4]; [8]): reduced to varying degrees, but there was no statistical difference | TC (ApoE knockout mice [4]; [8]): reduced to varying degrees, but there was no statistical difference | TG (ApoE knockout mice [4]; [8]): reduced to varying degrees, but there was no statistical difference | LDL-C (ApoE knockout mice [4]; ♂, 20 mg/kg gavage QD, 58 days): 6.17 ± 1.46 mmol/L | HDL-C (ApoE knockout mice [4]; [9]): 1.92 ± 0.62 mmol/L | TC (ApoE knockout mice [4]; [9]): 19.45 ± 2.37 mmol/L | TG (ApoE knockout mice [4]; [9]): 0.78 ± 0.27 mmol/L | HDL-C (ApoE knockout mice [4]; [10]): lower | TC (ApoE knockout mice [4]; [10]): lower | TG (ApoE knockout mice [4]; [10]): lower | aorta (CD68) signal expression in blood vessels (CD68): low to medium | Mild n (number of animal cases with mild lesions) [5, 11]: 0 | Moderate n (number of animal cases with moderate lesions) [5, 11]: 3 | No lesion n (number of animal cases) [5, 11]: 3 | Severe n (number of animal cases with severe lesions) [5, 11]: 2 | animals that had atherosclerosis (histological observation) ([5]; of 8 aortas examined, 20 mg/kg): 5 cases | Scores (atherosclerotic lesion score, average of the group) ([5]; score 0-3 per Table 8, 20 mg/kg body weight): 1.50 ± 1.31
